Several values for one entry are separate records, joined by “and”; a condition that tells them apart may be missing. Equal entries are not always repeated. Inconclusive results and toxic doses are left out.
Test system: CD2F1 mice, L1210 leukemia ip, survival T/C
Assay: NCI In Vivo Anticancer Drug Screen. Data for tumor model L1210 Leukemia (intraperitoneal) in CD2F1 (CDF1) mice
Details: higher = longer survival
In short: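 Ratio T/C, where T is the treated-group value and C the vehicle-dosed control value, from mice implanted with a transplantable tumor.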

[1] = endpoint: mean survival time, dose: 100.0 mg/kg/injection, schedule: Q01DX009 (ip), vehicle: saline with Tween-80
[2] = endpoint: mean survival time, dose: 200.0 mg/kg/injection, schedule: Q01DX009 (ip), vehicle: saline with Tween-80
[3] = endpoint: mean survival time, dose: 400.0 mg/kg/injection, schedule: Q01DX009 (ip), vehicle: saline with Tween-80
[4] = endpoint: mean survival time, dose: 100.0 mg/kg/injection, schedule: Q04DX003 (ip), vehicle: saline with Tween-80
[5] = endpoint: mean survival time, dose: 200.0 mg/kg/injection, schedule: Q04DX003 (ip), vehicle: saline with Tween-80
[6] = endpoint: mean survival time, dose: 400.0 mg/kg/injection, schedule: Q04DX003 (ip), vehicle: saline with Tween-80
[7] = endpoint: mean survival time, dose: 100.0 mg/kg/injection, schedule: Q04DX002 (ip), vehicle: saline with Tween-80
[8] = endpoint: mean survival time, dose: 200.0 mg/kg/injection, schedule: Q04DX002 (ip), vehicle: saline with Tween-80
[9] = endpoint: mean survival time, dose: 400.0 mg/kg/injection, schedule: Q04DX002 (ip), vehicle: saline with Tween-80

Compound: OC1CCCC/C1=C/C=C/c1ccccc1 (centres undefined)
- T/C [1]: 92 % of control and 91 % of control
- T/C [2]: 94 % of control and 92 % of control
- T/C [3]: 93 % of control

Compound: COc1ccc(C(O)(c2ccc(OC)cc2)C(c2ccccc2)c2ccccc2)cc1
- T/C [1]: 100 % of control
- T/C [2]: 96 % of control
- T/C [3]: 97 % of control

Compound: Cc1ccc(-[n+]2nscc2O)cc1
- T/C (endpoint: mean survival time, dose: 75.0 mg/kg/injection, schedule: Q01DX001 (ip), vehicle: saline): 96 % of control
- T/C (endpoint: mean survival time, dose: 150.0 mg/kg/injection, schedule: Q01DX001 (ip), vehicle: saline): 97 % of control
- T/C (endpoint: mean survival time, dose: 300.0 mg/kg/injection, schedule: Q01DX001 (ip), vehicle: saline): 92 % of control

Compound: COc1ccc2c(c1)c1c(C)c3cnccc3c(C)c1n2CCO
- T/C [4]: 112 % of control
- T/C [5]: 115 % of control

Compound: O=C(O)/C=C/C(=O)Nc1cccc(Oc2ccc([N+](=O)[O-])cc2[N+](=O)[O-])c1
- T/C (endpoint: mean survival time, dose: 100.0 mg/kg/injection, schedule: Q01DX009 (ip), vehicle: saline): 96 % of control
- T/C (endpoint: mean survival time, dose: 200.0 mg/kg/injection, schedule: Q01DX009 (ip), vehicle: saline): 100 % of control
- T/C (endpoint: mean survival time, dose: 400.0 mg/kg/injection, schedule: Q01DX009 (ip), vehicle: saline): 98 % of control

Compound: Clc1ccc(Oc2ccc(Cl)cc2)cc1
- T/C (endpoint: mean survival time, dose: 50.0 mg/kg/injection, schedule: Q01DX009 (ip), vehicle: saline with Tween-80): 94 % of control
- T/C [1]: 100 % of control
- T/C [2]: 105 % of control

Compound: C=CC1CCCCC1C (centres undefined)
- T/C [4]: 100 % of control
- T/C [5]: 100 % of control
- T/C [6]: 103 % of control

Compound: C(=N/c1ccccn1)/c1ccc(/C=N\c2ccccn2)cc1
- T/C (endpoint: mean survival time, dose: 100.0 mg/kg/injection, schedule: Q04DX003 (ip), vehicle: Klucel (hydroxypropylcellulose) (HPC)): 94 % of control
- T/C (endpoint: mean survival time, dose: 200.0 mg/kg/injection, schedule: Q04DX003 (ip), vehicle: Klucel (hydroxypropylcellulose) (HPC)): 94 % of control
- T/C (endpoint: mean survival time, dose: 400.0 mg/kg/injection, schedule: Q04DX003 (ip), vehicle: Klucel (hydroxypropylcellulose) (HPC)): 102 % of control

Compound: CCN(CC)C(=S)Nc1ccc(Cl)cc1
- T/C [7]: 102 % of control
- T/C [8]: 102 % of control
- T/C [9]: 102 % of control

Compound: CCOC(OCC)C(=O)OCC(=O)[C@]1(O)Cc2c(O)c3c(c(O)c2[C@@H](OC2CC(N)C(O)C(C)O2)C1)C(=O)c1c(OC)cccc1C3=O (some centres undefined)
- T/C (endpoint: mean survival time, dose: 0.13 mg/kg/injection, schedule: Q01DX009 (ip), vehicle: saline): 104 % of control
- T/C (endpoint: mean survival time, dose: 0.25 mg/kg/injection, schedule: Q01DX009 (ip), vehicle: saline): 118 % of control and 107 % of control
- T/C (endpoint: mean survival time, dose: 0.5 mg/kg/injection, schedule: Q01DX009 (ip), vehicle: saline): 110 % of control
- T/C (endpoint: mean survival time, dose: 1.0 mg/kg/injection, schedule: Q01DX009 (ip), vehicle: saline): 174 % of control
- T/C (endpoint: mean survival time, dose: 2.0 mg/kg/injection, schedule: Q01DX009 (ip), vehicle: saline): 160 % of control
- T/C (endpoint: mean survival time, dose: 4.0 mg/kg/injection, schedule: Q01DX009 (ip), vehicle: saline): 104 % of control

Compound: CC1(C)OC(C(COC(c2ccccc2)(c2ccccc2)c2ccccc2)OC(=O)c2ccccc2)C(C(COC(c2ccccc2)(c2ccccc2)c2ccccc2)OC(=O)c2ccccc2)O1 (centres undefined)
- T/C (endpoint: mean survival time, dose: 50.0 mg/kg/injection, schedule: Q01DX009 (ip), vehicle: Klucel (hydroxypropylcellulose) (HPC)): 98 % of control
- T/C (endpoint: mean survival time, dose: 100.0 mg/kg/injection, schedule: Q01DX009 (ip), vehicle: Klucel (hydroxypropylcellulose) (HPC)): 94 % of control
- T/C (endpoint: mean survival time, dose: 200.0 mg/kg/injection, schedule: Q01DX009 (ip), vehicle: Klucel (hydroxypropylcellulose) (HPC)): 94 % of control

Compound: Cc1cn(C2CC3OP(=O)(C(C)(C)C#N)OCC3O2)c(=O)[nH]c1=O (centres undefined)
- T/C (endpoint: median survival time, dose: 12.5 mg/kg/injection, schedule: Q01DX005 (ip), vehicle: distilled water + Tween-80): 101 % of control
- T/C (endpoint: median survival time, dose: 25.0 mg/kg/injection, schedule: Q01DX005 (ip), vehicle: distilled water + Tween-80): 100 % of control
- T/C (endpoint: median survival time, dose: 50.0 mg/kg/injection, schedule: Q01DX005 (ip), vehicle: distilled water + Tween-80): 103 % of control
- T/C (endpoint: median survival time, dose: 100.0 mg/kg/injection, schedule: Q01DX005 (ip), vehicle: distilled water + Tween-80): 100 % of control
- T/C (endpoint: median survival time, dose: 200.0 mg/kg/injection, schedule: Q01DX005 (ip), vehicle: distilled water + Tween-80): 97 % of control

Compound: CCOC(=O)NCC1CCC(CO)CC1 (centres undefined)
- T/C [7]: 95 % of control
- T/C [8]: 117 % of control
- T/C [9]: 98 % of control

Compound: OC(Cc1nc2ccccc2s1)(C(F)(F)F)C(F)(F)F
- T/C [1]: 96 % of control
- T/C [4]: 95 % of control
- T/C [2]: 93 % of control
- T/C [5]: 104 % of control
- T/C [3]: 96 % of control
- T/C [6]: 97 % of control
